Reference: publication PMC7508162 (Frontiers in Pharmacology, 2020)

How the values were obtained:
human CD39 [1] = biological target: T1, human CD39 (Homo sapiens, UniProt P49961); assay: Fluorescence capillary electrophoresis assay for CD39; assay type: biochemical; design: Human umbilical cord membrane preparations (250 ng) natively expressing high amounts of CD39; from tissue; host or cells: human umbilical cord membranes; details: fluorescent substrate PSB-017621A 0.5 µM; human umbilical cord membrane preparation; n = 3; Cheng-Prusoff; read-out: Ki ± SEM
T1 sequence (P49961 1-510): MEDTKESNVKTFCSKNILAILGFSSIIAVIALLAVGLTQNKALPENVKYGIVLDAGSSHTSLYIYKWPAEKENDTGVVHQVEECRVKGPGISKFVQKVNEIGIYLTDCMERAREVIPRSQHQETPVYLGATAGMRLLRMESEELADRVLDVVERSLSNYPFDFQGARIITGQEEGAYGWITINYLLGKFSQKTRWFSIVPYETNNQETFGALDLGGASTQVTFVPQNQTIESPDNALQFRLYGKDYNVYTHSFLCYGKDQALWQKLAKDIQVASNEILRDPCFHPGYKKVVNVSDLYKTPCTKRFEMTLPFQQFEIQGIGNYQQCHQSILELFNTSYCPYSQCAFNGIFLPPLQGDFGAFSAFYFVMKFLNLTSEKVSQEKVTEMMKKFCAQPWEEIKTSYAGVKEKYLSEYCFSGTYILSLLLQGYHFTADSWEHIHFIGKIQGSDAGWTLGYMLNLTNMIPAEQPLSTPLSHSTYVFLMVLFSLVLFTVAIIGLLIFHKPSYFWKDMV
Procedure: (§1) They were minced and homogenized with a polytron in 95 mM NaCl, 0.1 mM phenylmethylsulfonyl fluoride (PMSF), and 45 mM Tris solution, pH 7.6. […] The pellets were resuspended in 5 mM Tris buffer solution, pH 8.0 and 10% glycerol. All purification steps were performed at 4°C. The preparations were kept at −80°C.
For inhibition screening, three independent experiments were performed. […] The reaction buffer contained 10 mM HEPES, 2 mM CaCl2, 1 mM MgCl2, pH 7.4. The samples were incubated at 37°C for 4 min, and the enzymatic reaction was terminated by heating at 90°C for 5 min. The solution was then diluted 1:20 with reaction buffer to perform separation of nucleotides by capillary electrophoresis (CE) followed by laser-induced fluorescence (LIF) detection. […] Three independent experiments were performed, and curves were calculated by GraphPad Prism 8 software (GraphPad software, San Diego, CA, USA).
Analysis was carried out using a P/ACE MDQ capillary electrophoresis system (Beckman Instruments, Fullerton, CA, USA). The separation was performed in a polyacrylamide-coated capillary [30 cm (10 cm effective length) × 50 µm (id), × 360 µm (od)]. Before each run, the capillary was rinsed with the background electrolyte [50 mM phosphate buffer (pH 6.5)] for 1 min at 30 psi. Samples were electrokinetically injected by applying a voltage of -6 kV for 30 s at the capillary outlet, and the fluorescent nucleotide derivatives were separated by voltage application of -15 kV. […] Data collection and peak area analysis were performed by the P/ACE MDQ software 32 KARAT obtained from Beckman Coulter (Fullerton, CA, USA).

human CD39 [2] = biological target: T1, human CD39; assay: Malachite green assay for CD39 (natural substrate ATP); assay type: biochemical; design: Human umbilical cord membrane preparations (250 ng) natively expressing high amounts of CD39; from tissue; host or cells: human umbilical cord membranes; details: natural substrate ATP 50 µM, n = 3, read-out: Ki ± SEM (converted)
Procedure: as §1
The reaction buffer contained 10 mM HEPES, 2 mM CaCl2, 1 mM MgCl2, pH 7.4 in a final volume of 50 μl in transparent 96-well half area plates. For CD39 (NTPDase1), we made use of human umbilical cord membranes preparations which express high levels of the enzyme. For the other human NTPDase isoenzymes, we had to resort to recombinant expression. […] The amount of enzyme preparation was adjusted to ensure 10–20% of substrate conversion. […] The released (inorganic) phosphate was quantified after 20 min of gentle shaking at 25°C by measuring the absorption of the malachite green-phosphomolybdate complex at 600 nm using a BMG PheraStar FS plate reader (BMG Labtech GmbH, Ortenberg, Germany).
% Inhibition=(B−T)/B*100%
where B is the average corrected absorption of the positive control without inhibitor and T the corrected absorption in the presence of test compound.
Full concentration-inhibition curves were determined with inhibitor concentrations ranging from 0.1 to 300 µM in the presence of 2% DMSO. Three independent experiments were performed (n = 3) and curves were calculated by the GraphPad Prism 8 software. The Ki value was calculated using the Cheng-Prusoff equation for competitive inhibitors: […]

P2 receptors = system: P2 receptors; design: method as in Robson et al., 2006; details: ref Robson et al., 2006; cited from earlier work

Row | SMILES | Ki (human CD39 [1]) | Ki (human CD39 [2]) | effect on P2 receptors (P2 receptors)
1 | CCCCNc1nc2c(NC)ncnc2n1[C@@H]1O[C@H](COP(=O)(O)OP(=O)(O)C(Br)(Br)P(=O)(O)O)[C@@H](O)[C@H]1O [Compound 33, (Dibromo((((((2R,3S,4R,5R)-5-(8-(butylamino)-6-(methylamino)-9H-purin-9-yl)-3,4-dihydroxy-tetrahydrofuran-2-yl)methoxy)(hydroxy)phosphoryl)oxy)-(hydroxy)phosphoryl)methyl)-phosphonic Acid] | 1.51 ± 0.4 µM | 3.35 µM | –
2 | CCN(CC)c1ncnc2c1ncn2[C@@H]1O[C@H](COP(=O)(O)OP(=O)(O)C(Br)(Br)P(=O)(O)O)[C@@H](O)[C@H]1O [ARL67156, (Dibromo((((((2R,3S,4R,5R)-5-(6-(diethylamino)-9H-purin-9-yl)-3,4-dihydroxytetrahydrofuran-2-yl)methoxy)-(hydroxy)-phosphoryl)oxy)(hydroxy)phosphoryl)methyl)-phosphonic Acid, reference compound] | – | – | no significant effect
